Reference: PMC8533149 (Biomolecules, 2021)
Where two headings read alike, the source gives them in different places.

What was measured:
[1] = tested on: HIV-1 LTR-III G-quadruplex (FAM/TAMRA-labeled LTR-III); test: FRET melting assay, LTR-III G4; format: binding; conditions: for LTR III stabilization: Figure 7, stabilization group; for LTR-III (average): Table S12, average stabilization
Outline: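 Melting is followed by FAM fluorescence (ex 495/em 520 nm) while heating at 1 °C/min from 30 to 95 °C. Labelled ODN at 0.5 μM, pre-annealed in 10 mM Li cacodylate, 100 mM KCl, pH 7.4, mixed with ligand at 50:1 (25 μM), or 20:1 and 2:1 for titration. ΔTm is relative to the 0.25% DMSO buffer control.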

[2] = tested on: human telomeric sequence Telo G4; test: FRET melting assay, Telo; format: binding; conditions: 50:1
Procedure: (§1) To evaluate stabilizing properties of the ligands in a complex with oligodeoxyribonucleotides (ODNs) melting with fluorescence registration was used. ODN (0.5 μM) (Table 1), labeled with 6-carboxyfluorescein (FAM) and 6-carboxytetramethylrhodamine (TAMRA) at the 5′- and 3′-end, respectively, were folded in lithium cacodylate buffer (10 mM, pH 7.4) with 100 mM KCl by heating at 95 °C for 5 min and gradually cooling to r.t. GFP chromophore analogs (5 mM solution in DMSO) were diluted with the same buffer to the final concentration of 25 μM and mixed with an equal volume of 0.5 μM ODN solution resulting in a molar ratio of 50:1 (total volume was 50 μL). For the titration experiments molar ratios of 20:1 and 2:1 were used. Samples were analyzed using DTprime qPCR system (DNA-Technology LLC, Moscow, Russia). Fluorescence was registered by detection of FAM emission at 520 nm upon excitation at 495 nm in the temperature range of 30–95 °C with 1 °C/min gradient. Tm was determined using the instrument software and ΔTm was calculated relative to ODN Tm in a buffer solution containing 0.25% (v/v) DMSO. The primary and secondary screening were carried out in singlicate and triplicate, respectively.
(§2) Initially we screened an in-house library of 440 synthetic GFP chromophore analogues for interaction with HIV-1 LTR-III sequence, which modulates HIV-1 promoter activity, using high-throughput screening (HTS) FRET melting assay (Table S1). […] We selected 11 compounds (Figure 2A), displaying stabilization in the range of 2.4–7.8 °C, and evaluated their ability to stabilize other G4-forming sequences, including human telomeric sequence Telo (one of the most common G4 structures in the human genome, having two conformations, Hybrid-1 and Hybrid-2 [36]) and model G4 […] (the G-rich Pu39 region of the P1 promoter of the oncogene BCL-2, an apoptosis regulator [37] with polymorphic conformational structure), as well as double stranded oligonucleotide (duplex) control sequence (Figure 2B, Table S2).

[3] = tested on: Pu39 G4 (G-rich region of the P1 promoter of BCL-2); test: FRET melting assay, Pu39; format: binding, human; conditions: 50:1
Procedure: as §1, §2

[4] = tested on: dsDNA (double stranded control sequence); test: FRET melting assay, duplex control; format: binding; conditions: 50:1
Procedure: as §1, §2

[5] = Cytotoxicity test; format: cell-based; conditions: human, MT4 cells (human T cell leukemia), Figure 7
Procedure: (§3) Green monkey kidney (Vero, Beach, FL, USA) cell line was maintained in 2 × Eagle MEM (“Chumakov FSC R&D IBP RAS”, Russia) with 5% FBS with L-glutamine, penicillin and streptomycin. […] HIV-1 strain NL4-3 was obtained via cell transfection with pNL4-3 3 (ARP2006, NIBSC, Potters Bar, UK).
(§4) MT4 cell suspensions were added to the wells with compound dilutions and DMSO control (approx. 2 × 10^4 cells per well). […] All experimental procedures were performed in two replicates and were repeated two to four times. Mean and SD were calculated with OriginPro 8 (OriginLab, St. Louis, MO, USA).

[6] = tested on: MT4 cells; test: Cytotoxicity test; format: cell-based; conditions: Table S12, nine days
Procedure: as §3, §4

[7] = tested on: HIV-1 strain NL4-3 in MT4 cells; test: Cytopathic effect inhibition test; format: cell-based; conditions: HIV-1 NL4-3, MT4 cells
Procedure: Human T cell leukemia (MT4) cell line was maintained in RPMI-1640 (“Chumakov FSC R&D IBP RAS”, Moscow, Russia) with 10% of fetal bovine serum (FBS, Invitrogen, Waltham, MA, USA), L-glutamine and gentamicin. Green monkey kidney (Vero, Beach, FL, USA) cell line was maintained in 2 × Eagle MEM (“Chumakov FSC R&D IBP RAS”, Russia) with 5% FBS with L-glutamine, penicillin and streptomycin. Cell cultures were incubated in the present of 5% CO2 at 37 °C. HIV-1 strain NL4-3 was obtained via cell transfection with pNL4-3 3 (ARP2006, NIBSC, Potters Bar, UK).
Eight two-fold dilutions of stock solutions of the compounds in two replicates were prepared in RPMI-1640 (“Chumakov FSC R&D IBP RAS”, Russia). Compound dilutions were mixed with equal volumes of the virus suspension containing 100 CCID50 (50% tissue culture infectious dose). Control cells were treated with the same sequential concentrations of DMSO as in compound dilutions. Then, the MT4 cell suspension (approx. 2 × 10^4 cells per well) in RPMI-1640 containing 10% FBS (Invitrogen, South America) was added to experimental mixtures. A final concentration series started from 25 μM. Each experiment contained virus dose titration in the inoculate to assure the acceptable dose-range. After a nine-day incubation (5% CO2, at 37 °C), cytopathic effect (CPE) was visually accessed via microscope. EC50 values were calculated according to the Karber method. All experimental procedures were performed in two replicates and were repeated two to four times. Mean and SD were calculated with OriginPro 8 (OriginLab, St. Louis, MO, USA).

[8] = Table S3 primary screening of newly synthesized analogs, 50:1
[9] = Table S5, newly synthesized compounds
[10] = LTR-III G4/ligand molar ratio 1:20
[11] = LTR-III G4/ligand molar ratio 1:50
[12] = Table S1 primary screening, ligand:ODN 50:1, singlicate
[13] = Table S2, primary screening lead compounds

Structure (SMILES)	LTR III stabilization [1] [°C]	LTR-III ΔTm [1, 8] [°C]	LTR-III (average) [1]	ΔTm Telo [2, 9] [°C]	ΔTm Pu39 [3, 9] [°C]	ΔTm Duplex [4, 9] [°C]	CC50 at 9 days [5] [µM]	СС50 (MT4) [6] [µM]	EC50 ([7]; Human immunodeficiency virus 1, NL43, 216 h, Table S12, CPE, nine-day incubation, read-out: EC50) [µM]	EC50 ([7]; Human immunodeficiency virus 1, NL43, Figure 7, read-out: Antiviral activity EC50 (HIV)) [µM]	ΔTm, titration [1, 10] [°C]	ΔTm, titration [1, 11] [°C]	LTR-III ΔTm [1, 12] [°C]	ΔTm Telo [2, 13] [°C]	ΔTm Pu39 [3, 13] [°C]	ΔTm Duplex [4, 13] [°C]	ΔTm, titration ([1]; LTR-III G4/ligand molar ratio 1:2) [°C]	ΔTm LTR III ([1]; Table S2, primary screening lead compounds, 50:1) [°C]
COc1c(O)ccc(/C=C2N=C(/C=C/c3cc(Br)c(O)c(Br)c3)N(C)C\2=O)c1OC [N1199]	> 3	4.3	4,3 °C	0.9±0.1	0±0.2	0±0.1	5 ± 3	4.6 ± 2.5	3.3 ± 1.1	3 ± 1								
COc1cc(/C=C2N=C(/C=C/c3ccnc4ccccc34)N(C)C\2=O)cc(OC)c1O [N1196]	> 3	11.7		8.7±0.2	7.2±0.4	0.5±0.1	> 25	> 25			7.9±0.4	11.3±0.3						
COc1cc(/C=C2N=C(/C=C/c3cc(Cl)nc(Cl)c3)N(C)C\2=O)cc(OC)c1O [N 960a]	> 3		5,2 °C				> 25	> 25					5.3	1±0.7	0.5±0.01	-0.5±0.07		
COc1ccc(/C=C/C2=NC(=C\c3ccc(O)cc3OC)/C(=O)N2C)cc1 [N 1052]	> 3		4,5 °C				7 ± 3	6.6 ± 3.1					4.6	3.9±0.1	2.1±0.2	-0.1±0.04		
COc1c(O)ccc(/C=C2N=C(/C=C/c3ccnc4ccccc34)N(C)C\2=O)c1OC [N1197]	> 3	11.3	11,3 °C	4.6±0.2	7±0.7	-0.4±0.2	1.7 ± 0.8	1.66 ± 0.79			8.5±0.3	11.4±0.2						
COc1ccc(/C=C2\N=C(CC(C)C)C(=O)N(O)C2=O)cc1 [M 813]			1,65 °C				0.5 ± 0.2	0.46 ± 0.16					2.9	-0.6±0.9	-1.5±1	0±0.04		
CN1C(=O)/C(=C/c2cc[n+](C)cc2)N=C1c1ccccc1 [M 903.2]			2,3 °C				> 25	> 25					2.8	0.4±0.1	-1±0.5	0.1±0.07		
COc1ccc(O)c(/C=C2N=C(/C=C/c3ccncc3)N(C)C\2=O)c1 [N 848.3]	> 3		3,3 °C				6 ± 2	5.5 ± 2.2					2.9	1.1±0.2	0.7±0.3	0.1±0.09		
COc1cc(/C=C2N=C(/C=C/c3cc(OC)c(O)c(OC)c3)N(C)C\2=O)cc(OC)c1O [N1193]	> 3	14	14 °C	9.5±0.1	3.8±0.04	0.6±0.1	2 ± 1	2.3 ± 1.1			9.1±0.6	13.1±0.2					2.4±0.6	
COc1cc(/C=C2N=C(/C=C/c3ccncc3)N(C)C\2=O)cc(OC)c1O [N 908]													2.4	0.1±0.1	-0.7±0.2	0±0.04		
COc1cc(O)ccc1/C=C1N=C(/C=C/c2ccnc3ccccc23)N(C)C\1=O [ZS 331]	> 3		3,7 °C				1.2 ± 0.6	1.17 ± 0.55						2.5±0.3	0.8±0.2	-0.2±0.1		3.3±0.2
CCNc1ccc(/C=C2\N=C(C)N(C)C2=O)cc1 [N 683.1]	> 3		3,1 °C				> 25	> 25					5	-0.1±0.04	1.4±0.6	0±0.04		
COc1ccc(OC)c(/C=C2N=C(/C=C/c3ccncc3)N(C)C\2=O)c1 [N 848.2]	> 3		3,2 °C				6 ± 2	6.4 ± 1.8					2.6	2.1±0.01	0.1±0.4	0.4±0.04		
